Measurements: patent US11111259B2, “Acylsulfonamide derivatives for treating senescence-associated diseases and disorders” (Unity Biotechnology, Inc., priority 2015, dated 2021)

Columns and labels:
BCL-xL = BCL-xL (Homo sapiens, UniProt Q07817); test: BCL-binding assay (AlphaLISA competition, BAD peptide); conditions: 6xHis BCL-xL with biotinylated BAD peptide, 24 hr incubation
Protocol: (§1) Compounds were prepared as 400× DMSO stock solutions in a 1:4 dilution series then diluted […] in assay buffer (25 mM HEPES pH 7.5, 100 mM NaCl, 0.1% BSA, 0.005% Tween) immediately before use. Aliquots of 400 nM 6xHis-tagged BCL-xL, BCL-2, and BCL-w were thawed on ice and diluted to 0.4 (BCL-XL) or 0.8 (BCL-W and 2) nM in assay buffer. Aliquots of biotinylated BIM and BAD peptides were diluted in assay buffer to 120 and 60 nM respectively. Ten microliters of biotinylated peptide were added to wells of a 96-well PCR plate, followed by ten microliters of inhibitor, then ten microliters of BCL protein, BCL-XL with BAD and BCL-W/2 with BIM. The plates were sealed and incubated at room temperature. After 24 hr, 0.16 μg Anti-His conjugated AlphaLISA acceptor beads were added in 5 μL assay buffer. After one hour at room temperature, 0.16 μg AlphaScreen streptavidin donor beads were added in 5 μL assay buffer and plates were incubated an additional 30 min in the dark. Two 17 μL aliquots of each reaction were plated in a Perkin Elmer 384-well proxiplate, and plates were scanned for using a Perkin Elmer Enspire plate reader. Kd values were calculated in Prism Graph Pad using a one site competitive binding model and previously determined Kd values for each protein peptide pair. […]

BCL-2 = BCL-2 (Homo sapiens, UniProt P10415); test: BCL-binding assay (AlphaLISA competition, BIM peptide); conditions: 6xHis BCL-2 with biotinylated BIM peptide, 24 hr incubation
BCL-2, sequence (P10415 whole entry, species assumed): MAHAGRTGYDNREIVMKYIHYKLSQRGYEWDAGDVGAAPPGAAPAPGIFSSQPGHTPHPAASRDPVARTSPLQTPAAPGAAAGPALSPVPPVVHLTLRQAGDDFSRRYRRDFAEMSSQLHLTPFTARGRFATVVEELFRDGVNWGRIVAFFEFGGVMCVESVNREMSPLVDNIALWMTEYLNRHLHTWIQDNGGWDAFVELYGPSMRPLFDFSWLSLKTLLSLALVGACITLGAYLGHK
Protocol: as §1

BCL-w = target: T1, BCL-w (Homo sapiens, UniProt Q92843); test: as above; conditions: 6xHis BCL-w with biotinylated BIM peptide, 24 hr incubation
T1 sequence (Q92843 1-193): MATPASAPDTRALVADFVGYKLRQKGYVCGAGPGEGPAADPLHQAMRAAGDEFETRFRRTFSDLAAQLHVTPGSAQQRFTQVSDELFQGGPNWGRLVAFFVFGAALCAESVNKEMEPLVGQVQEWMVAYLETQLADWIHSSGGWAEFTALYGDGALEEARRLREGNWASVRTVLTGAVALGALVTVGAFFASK
Protocol: as §1

[1] = tested on: IMR-90 SnC (irradiated senescent IMR90 cells); test: Senolysis assay (CellTiter-Glo viability); format: cell-based, human; conditions: for EC50: Homo sapiens, IMR-90, light or radiation study, 72 h, X-ray irradiated senescent IMR90 cells, viability three days after compound addition; for SI (ratio of EC50 of non-senescent cells to EC50 of senescent cells): IMR90 non-senescent vs senescent cells
Protocol: IMR90 cells are maintained in DMEM supplemented with 10% FBS. To prepare a senescent population, cells were trypsinized, diluted to 50,000 per mL, and irradiated with 10-15 Gy of X-ray irradiation. Irradiated cells were plated at 5000 cells per well in one third of a 96-well plate and maintained for two weeks prior to the assay. Four days prior to the assay, non-senescent IMR90s were plated at 2500 per well in the second third of the plate. One day prior to the assay, 2500 non-senescent cells were plated in the final third of the plate. Compounds were prepared as a 200×DMSO dilution series then diluted to 1× in media immediately before adding to cells. Three days after compound addition, cell viability was measured using CellTiter-Glo reagent from Promega. Viability was calculated relative to a DMSO control and EC50 values are calculated in Prism GraphPad. […] The selectivity (SI) of the compounds described herein is a ratio of the EC50 of non-senescent cells to the EC50 of senescent cells. The SI of the compounds described herein is 10 or above for “A” selectivity, between 2 and 10 for “B” selectivity or 2 or less for “C” selectivity.

BCL-xL, sequence (Q07817 whole entry, species assumed): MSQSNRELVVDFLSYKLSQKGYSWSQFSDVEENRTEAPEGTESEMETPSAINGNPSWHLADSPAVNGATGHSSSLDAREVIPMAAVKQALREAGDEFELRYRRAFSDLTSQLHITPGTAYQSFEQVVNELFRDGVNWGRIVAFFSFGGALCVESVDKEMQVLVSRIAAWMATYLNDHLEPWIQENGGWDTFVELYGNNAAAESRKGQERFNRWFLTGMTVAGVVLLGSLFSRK

Compound	Kd (BCL-xL) [nM]	Kd (BCL-2) [nM]	Kd (BCL-w) [nM]	EC50 [1] [nM]	SI (ratio of EC50 of non-senescent cells to EC50 of senescent cells) [1]
CC1(C)CCC(c2ccc(Cl)cc2)=C(CN2CCN(c3ccc(C(=O)NS(=O)(=O)c4ccc(N[C@H](CCN5CCC(CP(=O)(OCOC(=O)C(C)(C)C)OCOC(=O)C(C)(C)C)CC5)CSc5ccccc5)c(S(=O)(=O)C(F)(F)F)c4)cc3)CC2)C1 [Compound 46]	1 to 10	1 to 10	> 50	> 10000	–
CC1(C)CCC(c2ccc(Cl)cc2)=C(CN2CCN(c3ccc(C(=O)NS(=O)(=O)c4ccc(N[C@H](CCN5CCC(CP(=O)(O)O)CC5)CSc5ccccc5)c(S(=O)(=O)C(F)(F)F)c4)cc3)CC2)C1 [Compound 47]	< 1	< 1	1 to 10	> 10000	–
CCOP(=O)(CC1CCN(CC[C@H](CSc2ccccc2)Nc2ccc(S(=O)(=O)NC(=O)c3ccc(N4CCN(CC5=C(c6ccc(Cl)cc6)CCC(C)(C)C5)CC4)cc3)cc2S(=O)(=O)C(F)(F)F)CC1)OCOC(=O)C(C)(C)C (stereo partly drawn) [Compound 48, (((1-((R)-3-((4-(N-(4-(4-((4′-chloro-4,4-dimethyl-3,4,5,6-tetrahydro-[1,1′-biphenyl]-2-yl)methyl)piperazin-1-yl)benzoyl)sulfamoyl)-2-((trifluoromethyl)sulfonyl)phenyl)amino)-4-(phenylthio)butyl)piperidin-4-yl)methyl)(ethoxy)phosphoryl)oxy)methyl pivalate]	< 1	< 1	1 to 10	< 1000	A (10 or above)
CCOP(=O)(CN1CCN(CC[C@H](CSc2ccccc2)Nc2ccc(S(=O)(=O)NC(=O)c3ccc(N4CCN(Cc5ccccc5-c5ccc(Cl)cc5)CC4)cc3)cc2S(=O)(=O)C(F)(F)F)CC1)OCC [Compound 51, Diethyl (R)-((4-(3-((4-(N-(4-(4-((4′-chloro-[1,1′-biphenyl]-2-yl)methyl)piperazin-1-yl)benzoyl)sulfamoyl)-2-((trifluoromethyl)sulfonyl)phenyl)amino)-4-(phenylthio)butyl)piperazin-1-yl)methyl)phosphonate]	< 1	< 1	1 to 10	1000 to 10000	B (between 2 and 10)
CCOP(=O)(O)CN1CCN(CC[C@H](CSc2ccccc2)Nc2ccc(S(=O)(=O)NC(=O)c3ccc(N4CCN(Cc5ccccc5-c5ccc(Cl)cc5)CC4)cc3)cc2S(=O)(=O)C(F)(F)F)CC1 [Compound 53, Ethyl hydrogen ((4-((R)-3-((4-(N-(4-(4-((4′-chloro-[1,1′-biphenyl]-2-yl)methyl)piperazin-1-yl)benzoyl)sulfamoyl)-2-((trifluoromethyl)sulfonyl)phenyl)amino)-4-(phenylthio)butyl)piperazin-1-yl)methyl)phosphonate]	< 1	< 1	< 1	> 10000	–
CCOP(=O)(CN1CCN(CC[C@H](CSc2ccccc2)Nc2ccc(S(=O)(=O)NC(=O)c3ccc(N4CCN(Cc5ccccc5-c5ccc(Cl)cc5)CC4)cc3)cc2S(=O)(=O)C(F)(F)F)CC1)OCOC(=O)C(C)(C)C (stereo partly drawn) [Compound 54, (((4-((R)-3-((4-(N-(4-(4-((4′-chloro-[1,1′-biphenyl]-2-yl)methyl)piperazin-1-yl)benzoyl)sulfamoyl)-2-((trifluoromethyl)sulfonyl)phenyl)amino)-4-(phenylthio)butyl)piperazin-1-yl)methyl)(ethoxy)phosphoryl)oxy)methyl pivalate]	< 1	< 1	1 to 10	1000 to 10000	B (between 2 and 10)
CCOP(=O)(CN1CCN(CC[C@H](CSc2ccccc2)Nc2ccc(S(=O)(=O)NC(=O)c3ccc(N4CCN(Cc5ccccc5-c5ccc(Cl)cc5)CC4)cc3)cc2S(=O)(=O)C(F)(F)F)CC1)OCOC(=O)OC(C)C (stereo partly drawn) [Compound 56, (((4-((R)-3-((4-(N-(4-(4-((4′-chloro-[1,1′-biphenyl]-2-yl)methyl)piperazin-1-yl)benzoyl)sulfamoyl)-2-((trifluoromethyl)sulfonyl)phenyl)amino)-4-(phenylthio)butyl)piperazin-1-yl)methyl)(ethoxy)phosphoryl)oxy)methyl isopropyl carbonate]	< 1	< 1	1 to 10	> 10000	–
